From publication PMC11962866 (RSC Advances, 2025)
Values after ≈ are worked out from the molar mass of the structure shown. Like-named read-outs stand apart in the source and are kept apart here.

Legend:
[1] = test system: MRC-5 cells; assay: Cytotoxicity assay on normal cells; type: cell-based, human; settings: read-out: IC50 on MRC-5 cell lines
[2] = test system: Strain 901; assay: Antifungal activity against fluconazole-resistant strain; type: cell-based; settings: Candida albicans, 901, read-out: MIC80 Strain 901
[3] = test system: C. alb (5314),C. par, C. gla, C. kru and C. neo; assay: In vitro antifungal assay, span over the five tested species; type: cell-based; settings: range over C. alb (5314)
[4] = test system: C. alb (SC5314); assay: In vitro antifungal assay; type: cell-based; settings: Candida albicans, SC5314, read-out: MIC80 C. alb (SC5314)
[5] = test system: Strain 904; assay: Antifungal activity against fluconazole-resistant strain; type: cell-based, Candida albicans; settings: Candida albicans, 904, read-out: MIC80 Strain 904
[6] = test system: Strain CaR; assay: as above; type: cell-based; settings: Candida albicans, read-out: MIC80 Strain CaR
[7] = test system: C. neo; assay: In vitro antifungal assay; type: cell-based; settings: Cryptococcus neoformans, read-out: MIC80 C. neo
[8] = test system: Strain 17#; assay: Antifungal activity against fluconazole-resistant strain; type: cell-based; settings: Candida albicans, read-out: MIC80 Strain 17#
[9] = test system: Strain 632; assay: as above; type: cell-based; settings: Candida albicans, 632, read-out: MIC80 Strain 632
[10] = Metabolic stability assay of liver microsomes; type: in vitro ADME; settings: mouse
[11] = Plasma stability assay; settings: male, SD, rat
[12] = test system: ERG11 and CDR1 of azole-resistant strain 904; assay: RT-PCR expression of resistant genes ERG11 and CDR1; type: cell-based, Candida albicans; settings: 0.25 μg mL^−1, strain 904, RT-PCR

Compound | IC50 ([1]; Homo sapiens, MRC5, 72 h) | MIC80 [2] | MIC80 / MIC span over the five tested fungi [3] | MIC80 [4] | MIC80 [5] | MIC80 [6] | MIC80 [7] | MIC80 [8] | MIC80 [9] | half-life [10] | microsomal CLint [10] | half-life [11] | remaining at 3 h [11] | Expression of ERG11 and CDR1 [12] | IC50 ([1]; 72 hours)
O=C(Nc1ccc2cccnc2c1)c1ccc(COC(Cn2ccnc2)c2ccc(Cl)cc2Cl)cc1 (stereo not shown) [A12, 4-((1-(2,4-Dichlorophenyl)-2-(1H-imidazol-1-yl)ethoxy)methyl)-N-(quinolin-7-yl)benzamide] | > 100 µM | 8 µg/mL (≈ 15.5 µM) | 2 to 64 µg/mL | 8 µg/mL (≈ 15.5 µM) | 2 µg/mL (≈ 3.87 µM) | 4 µg/mL (≈ 7.73 µM) | 4 µg/mL (≈ 7.73 µM) | 8 µg/mL (≈ 15.5 µM) | 8 µg/mL (≈ 15.5 µM) | – | – | – | – | – | –
Clc1ccc(COC(Cn2ccnc2)c2ccc(Cl)cc2Cl)c(Cl)c1 (stereo not shown) [Miconazole, miconazole] | – | – | – | 0.25 µg/mL (≈ 0.601 µM) | – | – | 0.125 µg/mL (≈ 0.3 µM) | – | – | 8.3 min | 660 µL/min/mg | > 360 min | 94.9% | – | –
COc1ccc(NC(=O)c2ccc(COC(Cn3ccnc3)c3ccc(Cl)cc3Cl)cc2)cc1 (stereo not shown) [A07, 4-((1-(2,4-Dichlorophenyl)-2-(1H-imidazol-1-yl)ethoxy)methyl)-N-(4-methoxyphenyl)benzamide] | > 100 µM | 4 µg/mL (≈ 8.06 µM) | – | 0.06 µg/mL (≈ 0.121 µM) | 0.25 µg/mL (≈ 0.504 µM) | 4 µg/mL (≈ 8.06 µM) | 0.25 µg/mL (≈ 0.504 µM) | 4 µg/mL (≈ 8.06 µM) | 4 µg/mL (≈ 8.06 µM) | – | – | – | – | reduced to basic levels | –
O=C(Nc1cccc(Br)c1)c1ccc(COC(Cn2ccnc2)c2ccc(Cl)cc2Cl)cc1 (stereo not shown) [A10, N-(3-Bromophenyl)-4-((1-(2,4-dichlorophenyl)-2-(1H-imidazol-1-yl)ethoxy)methyl)benzamide] | > 100 µM | 2 µg/mL (≈ 3.67 µM) | – | 0.25 µg/mL (≈ 0.458 µM) | 0.25 µg/mL (≈ 0.458 µM) | 8 µg/mL (≈ 14.7 µM) | 0.125 µg/mL (≈ 0.229 µM) | 16 µg/mL (≈ 29.3 µM) | 8 µg/mL (≈ 14.7 µM) | – | – | – | – | – | –
O=C(Nc1cccc(Cl)c1)c1ccc(COC(Cn2ccnc2)c2ccc(Cl)cc2Cl)cc1 (stereo not shown) [A09, N-(3-Chlorophenyl)-4-((1-(2,4-dichlorophenyl)-2-(1H-imidazol-1-yl)ethoxy)methyl)benzamide] | > 100 µM | 2 µg/mL (≈ 3.99 µM) | – | 0.03 µg/mL (≈ 0.0599 µM) | 0.25 µg/mL (≈ 0.499 µM) | 8 µg/mL (≈ 16 µM) | 0.125 µg/mL (≈ 0.25 µM) | 8 µg/mL (≈ 16 µM) | 4 µg/mL (≈ 7.99 µM) | – | – | – | – | – | –
O=C(Nc1cccc(F)c1)c1ccc(COC(Cn2ccnc2)c2ccc(Cl)cc2Cl)cc1 (stereo not shown) [A08, 4-((1-(2,4-Dichlorophenyl)-2-(1H-imidazol-1-yl)ethoxy)methyl)-N-(3-fluorophenyl)benzamide] | > 100 µM | 2 µg/mL (≈ 4.13 µM) | – | 0.06 µg/mL (≈ 0.124 µM) | 0.25 µg/mL (≈ 0.516 µM) | 4 µg/mL (≈ 8.26 µM) | 0.125 µg/mL (≈ 0.258 µM) | 16 µg/mL (≈ 33 µM) | 4 µg/mL (≈ 8.26 µM) | – | – | – | – | – | –
O=C(Nc1ccc(F)cc1)c1ccc(COC(Cn2ccnc2)c2ccc(Cl)cc2Cl)cc1 (stereo not shown) [A02, 4-((1-(2,4-Dichlorophenyl)-2-(1H-imidazol-1-yl)ethoxy)methyl)-N-(4-fluorophenyl)benzamide] | > 100 µM | 4 µg/mL (≈ 8.26 µM) | – | 0.125 µg/mL (≈ 0.258 µM) | 0.25 µg/mL (≈ 0.516 µM) | 8 µg/mL (≈ 16.5 µM) | 0.5 µg/mL (≈ 1.03 µM) | 8 µg/mL (≈ 16.5 µM) | 4 µg/mL (≈ 8.26 µM) | – | – | – | – | – | –
O=C(Nc1ccc(Cl)cc1)c1ccc(COC(Cn2ccnc2)c2ccc(Cl)cc2Cl)cc1 (stereo not shown) [A03, N-(4-Chlorophenyl)-4-((1-(2,4-dichlorophenyl)-2-(1H-imidazol-1-yl)ethoxy)methyl)benzamide] | > 100 µM | 2 µg/mL (≈ 3.99 µM) | – | 0.125 µg/mL (≈ 0.25 µM) | 0.25 µg/mL (≈ 0.499 µM) | 8 µg/mL (≈ 16 µM) | 0.06 µg/mL (≈ 0.12 µM) | 16 µg/mL (≈ 31.9 µM) | 4 µg/mL (≈ 7.99 µM) | – | – | – | – | – | –
O=C(Nc1ccccc1)c1ccc(COC(Cn2ccnc2)c2ccc(Cl)cc2Cl)cc1 (stereo not shown) [A01, 4-((1-(2,4-dichlorophenyl)-2-(1H-imidazol-1-yl)ethoxy)methyl)-N-phenylbenzamide] | > 100 µM | 2 µg/mL (≈ 4.29 µM) | – | 0.125 µg/mL (≈ 0.268 µM) | 0.5 µg/mL (≈ 1.07 µM) | 4 µg/mL (≈ 8.58 µM) | 0.25 µg/mL (≈ 0.536 µM) | 8 µg/mL (≈ 17.2 µM) | 4 µg/mL (≈ 8.58 µM) | – | – | – | – | reduced to basic levels | –
Cc1ccc(NC(=O)c2ccc(COC(Cn3ccnc3)c3ccc(Cl)cc3Cl)cc2)cc1 (stereo not shown) [A05, 4-((1-(2,4-Dichlorophenyl)-2-(1H-imidazol-1-yl)ethoxy)methyl)-N-(p-tolyl)benzamide] | > 100 µM | 4 µg/mL (≈ 8.33 µM) | – | 0.03 µg/mL (≈ 0.0624 µM) | 0.25 µg/mL (≈ 0.52 µM) | 4 µg/mL (≈ 8.33 µM) | 0.25 µg/mL (≈ 0.52 µM) | 8 µg/mL (≈ 16.7 µM) | 4 µg/mL (≈ 8.33 µM) | – | – | – | – | – | –
N.N.[Cl][Pt][Cl] [cis-Pt, reference compound] | – | – | – | – | – | – | – | – | – | – | – | – | – | – | 78.3 µM
O=C(Nc1ccc2[nH]ccc2c1)c1ccc(COC(Cn2ccnc2)c2ccc(Cl)cc2Cl)cc1 (stereo not shown) [A15, 4-((1-(2,4-Dichlorophenyl)-2-(1H-imidazol-1-yl)ethoxy)methyl)-N-(1H-indol-5-yl)benzamide] | > 100 µM | 8 µg/mL (≈ 15.8 µM) | – | 128 µg/mL (≈ 253 µM) | 8 µg/mL (≈ 15.8 µM) | 128 µg/mL (≈ 253 µM) | 128 µg/mL (≈ 253 µM) | > 128 µg/mL | 128 µg/mL (≈ 253 µM) | – | – | – | – | – | –
O=C(Nc1ccc(C(F)(F)F)cc1)c1ccc(COC(Cn2ccnc2)c2ccc(Cl)cc2Cl)cc1 (stereo not shown) [A06, 4-((1-(2,4-Dichlorophenyl)-2-(1H-imidazol-1-yl)ethoxy)methyl)-N-(4-(trifluoromethyl)phenyl)benzamide] | > 100 µM | 2 µg/mL (≈ 3.74 µM) | – | 0.06 µg/mL (≈ 0.112 µM) | 0.25 µg/mL (≈ 0.468 µM) | 2 µg/mL (≈ 3.74 µM) | 0.125 µg/mL (≈ 0.234 µM) | 16 µg/mL (≈ 29.9 µM) | 2 µg/mL (≈ 3.74 µM) | – | – | – | – | – | –
O=C(Nc1ccc(Br)cc1)c1ccc(COC(Cn2ccnc2)c2ccc(Cl)cc2Cl)cc1 (stereo not shown) [A04, N-(4-Bromophenyl)-4-((1-(2,4-dichlorophenyl)-2-(1H-imidazol-1-yl)ethoxy)methyl)benzamide] | > 100 µM | 2 µg/mL (≈ 3.67 µM) | – | 0.06 µg/mL (≈ 0.11 µM) | 0.25 µg/mL (≈ 0.458 µM) | 4 µg/mL (≈ 7.34 µM) | 0.25 µg/mL (≈ 0.458 µM) | 16 µg/mL (≈ 29.3 µM) | 4 µg/mL (≈ 7.34 µM) | – | – | – | – | – | –
